For 29 molecules, DC50 results are on record in patent publication US12091411B2, “IRAK degraders and uses thereof” (Kymera Therapeutics, Inc., priority 2022, dated 2024).

This assay has as its target T1, IRAK4 (Homo sapiens, UniProt Q9NWZ3).
T1 construct: Degradation of IRAK4 in OCI-LY10 was quantitatively measured using Meso Scale Discovery technology; endogenous in cells; host or cells: OCI-LY10
T1 sequence (Q9NWZ3 1-460): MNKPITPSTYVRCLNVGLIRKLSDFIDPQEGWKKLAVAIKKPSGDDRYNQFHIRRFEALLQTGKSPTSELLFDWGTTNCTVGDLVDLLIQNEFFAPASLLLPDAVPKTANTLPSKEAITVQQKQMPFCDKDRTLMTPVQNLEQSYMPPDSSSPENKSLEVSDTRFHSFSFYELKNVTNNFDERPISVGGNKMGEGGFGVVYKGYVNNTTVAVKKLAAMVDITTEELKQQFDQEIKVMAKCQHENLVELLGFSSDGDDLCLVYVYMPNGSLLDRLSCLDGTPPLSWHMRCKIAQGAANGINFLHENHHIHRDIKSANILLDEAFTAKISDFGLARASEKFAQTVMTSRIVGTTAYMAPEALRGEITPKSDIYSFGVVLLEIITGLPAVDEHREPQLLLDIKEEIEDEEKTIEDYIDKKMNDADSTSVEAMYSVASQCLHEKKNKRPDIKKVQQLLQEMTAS
Kind of assay: IRAK4 MSD Degradation in OCI-LY10. The class given is cell-based. The note with it: OCI-LY10 cells, MSD. A digest of the protocol: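 DC50, from a three-parameter logistic fit and reported as letter bins A (<0.01 μM), B, C, D (>0.2 μM or not tested), reflects IRAK4 loss measured by MSD electrochemiluminescence in OCI-LY10 lysates. Treatment: 8 doses, 1:3 steps, top 1 to 10 μM, 4 to 24 h, 37 °C.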

The mark [1] stands for this setting: 4 hrs incubation, read-out: IRAK4 degradation in OCI-LY10 at 4 hrs: DC50.
Setting [2] is: 24 hrs incubation, read-out: IRAK4 degradation in OCI-LY10 at 24 hrs: DC50.

Structures are written as SMILES. Read-outs that look alike come from different tables or passages of the source.

As to `O=C1CCN(c2cccc(C#CCN3CCN(C[C@H]4CC[C@@H](n5cc(NC(=O)c6cnn7ccc(N8CC9CCC(C8)O9)nc67)c(C(F)F)n5)CC4)CC3)c2)C(=O)N1` [I-435], the DC50 runs as follows: under setting [1], above 200 nM; under setting [2], above 200 nM.
As for `O=C1CCN(c2cccc(C#CCN3CCN(C[C@H]4CC[C@@H](n5cc(NC(=O)c6cnn7ccc(N8CC9CC(C8)O9)nc67)c(C(F)F)n5)CC4)CC3)c2)C(=O)N1` [I-436], the DC50 reads like this: under setting [1], above 200 nM; under setting [2], above 200 nM.
`O=C1CCC(c2ccc(C#CCN3CCN(C[C@H]4CC[C@H](n5cc(NC(=O)c6cnn7ccc(N8C[C@H]9C[C@@H]8CO9)nc67)c(C(F)F)n5)CC4)CC3)cc2)C(=O)N1` (stereo partly shown) [I-437]: the DC50 reads like this: under setting [1], 10 to 100 nM; under setting [2], above 200 nM.
The like results for `COc1cc2nn([C@H]3CC[C@H](CN4CCC(c5cccc6c5n(C)c(=O)n6C5CCC(=O)NC5=O)CC4)CC3)cc2cc1NC(=O)c1cncc(F)c1` (stereo partly shown) [I-439] were, in that order, below 10 nM and above 200 nM.
Take `C[C@@H]1CN(c2ccn3ncc(C(=O)Nc4cn([C@H]5CC[C@H](CN(C)C6CCN(c7cccc8c7n(C)c(=O)n8C7CCC(=O)NC7=O)CC6)CC5)nc4C(F)F)c3n2)C[C@@H](C)O1` (stereo partly shown) [I-440]: the 50% degradation concentration (DC50) is below 10 nM under setting [1] and below 10 nM under setting [2].
Consider `C[C@H]1CN(c2ccn3ncc(C(=O)Nc4cn([C@H]5CC[C@H](CN(C)C6CCN(c7cccc8c7n(C)c(=O)n8C7CCC(=O)NC7=O)CC6)CC5)nc4C(F)F)c3n2)C[C@H](C)O1` (stereo partly shown) [I-441], for which the DC50 reads like this: under setting [1], below 10 nM; under setting [2], below 10 nM.
Consider `C[C@@H]1CN(c2ccn3ncc(C(=O)Nc4cn([C@H]5CC[C@H](CN(C)C6CCN(c7cccc8c7n(C)c(=O)n8C7CCC(=O)NC7=O)CC6)CC5)nc4C(F)F)c3n2)C[C@H](C)O1` (stereo partly shown) [I-442], for which the DC50 by setting is: under setting [1], 10 to 100 nM; under setting [2], below 10 nM.
The like results for `Cn1c(=O)n(C2CCC(=O)NC2=O)c2cccc(C3CCN(C[C@H]4CC[C@H](n5cc6cc(NC(=O)c7cccc(C(F)(F)F)n7)c(C(F)F)cc6n5)CC4)CC3(F)F)c21` (stereo partly shown) [I-443] were, in that order, above 200 nM and above 200 nM.
The corresponding values for `Cn1c(=O)n(C2CCC(=O)NC2=O)c2cccc(C3CCN(C[C@H]4CC[C@H](n5cc6cc(NC(=O)c7cccc(C(F)(F)F)n7)c(C#N)cc6n5)CC4)CC3(F)F)c21` (stereo partly shown) [I-444] are above 200 nM and above 200 nM.
The like results for `Cn1c(=O)n(C2CCC(=O)NC2=O)c2cccc(C3CCN(C[C@H]4CC[C@H](n5cc6cc(NC(=O)c7cccc(C(F)(F)F)n7)ccc6n5)CC4)CC3(F)F)c21` (stereo partly shown) [I-445] were, in that order, above 200 nM and above 200 nM.
Turning to `COc1ccc2c(c1C1CCN(C[C@H]3CC[C@H](n4cc5cc(NC(=O)c6cccc(C(F)(F)F)n6)ccc5n4)CC3)CC1(F)F)n(C)c(=O)n2C1CCC(=O)NC1=O` (stereo partly shown) [I-446], the DC50 under setting [1] is above 200 nM and the DC50 under setting [2] is above 200 nM.
With `Cn1c(=O)n(C2CCC(=O)NC2=O)c2cccc(C3CCN(C[C@H]4CC[C@H](n5cc6cc(NC(=O)c7cccc(C(F)(F)F)n7)ncc6n5)CC4)CC3(F)F)c21` (stereo partly shown) [I-447], the DC50 is above 200 nM under setting [1] and below 10 nM under setting [2].
For `COc1ccc2c(c1C1CCN(C[C@H]3CC[C@H](n4cc5cc(NC(=O)c6cccc(C(F)(F)F)n6)ncc5n4)CC3)CC1(F)F)n(C)c(=O)n2C1CCC(=O)NC1=O` (stereo partly shown) [I-448], the DC50 runs as follows: under setting [1], above 200 nM; under setting [2], above 200 nM.
For `Cn1c(=O)n(C2CCC(=O)NC2=O)c2cccc(C3CCN(C[C@H]4CC[C@H](n5cc6cc(NC(=O)c7cccc(C(F)(F)F)n7)c(F)cc6n5)CC4)CC3(F)F)c21` (stereo partly shown) [I-449], the DC50 by setting is: under setting [1], above 200 nM; under setting [2], above 200 nM.
Regarding `Cn1c(=O)n(C2CCC(=O)NC2=O)c2cccc(C3CCN(C[C@H]4CC[C@H](n5cc6cc(NC(=O)c7cccc(C(F)(F)F)n7)c(Cl)cc6n5)CC4)CC3(F)F)c21` (stereo partly shown) [I-450], the DC50 was above 200 nM under setting [1] and above 200 nM under setting [2].
On to `COc1cc2nn([C@H]3CC[C@H](CN4CCC(c5cccc6c5n(C)c(=O)n6C5CCC(=O)NC5=O)C(F)(F)C4)CC3)cc2cc1NC(=O)c1cccc(C(F)(F)F)n1` (stereo partly shown) [I-451], for which the DC50 under setting [1] is above 200 nM and the DC50 under setting [2] is above 200 nM.
Consider `Cc1cc2nn([C@H]3CC[C@H](CN4CCC(c5cccc6c5n(C)c(=O)n6C5CCC(=O)NC5=O)C(F)(F)C4)CC3)cc2cc1NC(=O)c1cccc(C(F)(F)F)n1` (stereo partly shown) [I-452], for which the 50% degradation concentration (DC50) by setting is: under setting [1], above 200 nM; under setting [2], above 200 nM.
Turning to `COc1ccc2c(c1N1CCC(N(C)C[C@H]3CC[C@H](n4cc(NC(=O)c5cnn6cccnc56)c(C(F)F)n4)CC3)C(F)(F)C1)n(C)c(=O)n2C1CCC(=O)NC1=O` (stereo partly shown) [I-453], the DC50 by setting is: under setting [1], above 200 nM; under setting [2], above 200 nM.
Regarding `Cn1c(=O)n(C2CCC(=O)NC2=O)c2cccc(C3=CCN(C[C@H]4CC[C@H](n5cc6cc(NC(=O)c7cccc(C(F)(F)F)n7)ccc6n5)CC4)CC3(F)F)c21` (stereo partly shown) [I-454], the DC50 is, setting by setting: under setting [1], above 200 nM; under setting [2], above 200 nM.
For the molecule `Cn1c(=O)n(C2CCC(=O)NC2=O)c2cccc(C3=CCN(C[C@H]4CC[C@H](n5cc6cc(NC(=O)c7cccc(C(F)(F)F)n7)c(C#N)cc6n5)CC4)CC3(F)F)c21` (stereo partly shown) [I-455], the DC50 under setting [1] is above 200 nM and the DC50 under setting [2] was above 200 nM.
For the molecule `Cn1c(=O)n(C2CCC(=O)NC2=O)c2cccc(C3=CCN(C[C@H]4CC[C@H](n5cc6cc(NC(=O)c7cccc(C(F)(F)F)n7)c(C(F)F)cc6n5)CC4)CC3(F)F)c21` (stereo partly shown) [I-456], the DC50 runs as follows: under setting [1], above 200 nM; under setting [2], above 200 nM.
With `Cn1c(=O)n(C2CCC(=O)NC2=O)c2cccc(C3=CCN(C[C@H]4CC[C@H](n5cc6cc(NC(=O)c7cccc(C(F)(F)F)n7)ccc6n5)CC4)CC3F)c21` (stereo partly shown) [I-457], the DC50 is above 200 nM under setting [1] and above 200 nM under setting [2].
With `Cn1c(=O)n(C2CCC(=O)NC2=O)c2cccc(C3=CCN(C[C@H]4CC[C@H](n5cc6cc(NC(=O)c7cccc(C(F)(F)F)n7)c(C#N)cc6n5)CC4)CC3F)c21` (stereo partly shown) [I-458], the DC50 is above 200 nM under setting [1] and above 200 nM under setting [2].
For `Cn1c(=O)n(C2CCC(=O)NC2=O)c2cccc(C3=CCN(C[C@H]4CC[C@H](n5cc6cc(NC(=O)c7cccc(C(F)(F)F)n7)c(C(F)F)cc6n5)CC4)CC3F)c21` (stereo partly shown) [I-459], the DC50 by setting is: under setting [1], above 200 nM; under setting [2], above 200 nM.
Consider `Cn1c(=O)n(C2CCC(=O)NC2=O)c2cccc(C3CCN(C[C@H]4CC[C@H](n5cc6cc(NC(=O)c7cccc(C(F)(F)F)n7)ccc6n5)CC4)CC3O)c21` (stereo partly shown) [I-460], for which the DC50 by setting is: under setting [1], above 200 nM; under setting [2], above 200 nM.
Regarding `Cn1c(=O)n(C2CCC(=O)NC2=O)c2cccc(C3CCN(C[C@]4(O)CC[C@@H](n5cc6cc(NC(=O)c7cccc(C(F)(F)F)n7)ccc6n5)CC4)CC3)c21` (stereo partly shown) [I-461], the DC50 by setting is: under setting [1], above 200 nM; under setting [2], above 200 nM.
Regarding `COc1cc2nn([C@H]3CC[C@H](CN4CC=C(c5ccc6c(c5)n(C)c(=O)n6C5CCC(=O)NC5=O)C(F)(F)C4)CC3)cc2cc1NC(=O)c1cccc(C(F)(F)F)n1` (stereo partly shown) [I-462], the DC50 runs as follows: under setting [1], above 200 nM; under setting [2], above 200 nM.
Consider `COc1cc2nn([C@H]3CC[C@H](CN4CCC(c5ccc6c(c5)n(C)c(=O)n6C5CCC(=O)NC5=O)C(F)(F)C4)CC3)cc2cc1NC(=O)c1cccc(C(F)(F)F)n1` (stereo partly shown) [I-463], for which the DC50 is, setting by setting: under setting [1], above 200 nM; under setting [2], above 200 nM.
For `Cn1c(=O)n(C2CCC(=O)NC2=O)c2ccc(C3=CCN(C[C@H]4CC[C@H](n5cc6cc(NC(=O)c7cccc(C(F)(F)F)n7)ccc6n5)CC4)CC3(F)F)cc21` (stereo partly shown) [I-464], the DC50 under setting [1] was above 200 nM and the DC50 under setting [2] was above 200 nM.
